{"source": "patent US8143254B2", "about": "“Methods for modulating ion channels” (Cornell Research Foundation, Inc., priority 2005, dated 2012)", "key": {"[1]": {"molecular_target": "T1, Kv2.1 Y380T (Rattus norvegicus, UniProt P15387, Y380T/Y384T)", "T1 construct": "expressed in transfected cells; host or cells: Xenopus laevis oocytes (cRNA from pGA1)", "assay": "TEVC of oocytes expressing Y380T mutant Kv2.1", "format": "cell-based", "settings": "Y380T mutation in Kv2.1", "source_text": "Kv2.1 mutants were constructed using the QuickChange Multi Site-Directed Mutagenesis Kit (Stratagene, La Jolla, Calif.). Mutant Kv2.1 genes (in the pGA1 oocyte expression vector for oocyte expression) were sequenced in their entirety to confirm appropriate mutations and check for inadvertent mutations, and then subcloned into a wild-type pGA1 backbone. For oocyte expression, Kv3.4 was in pBF1, Kv4.2 was in pRAT. cRNA transcripts were produced from SacII-linearized (Kv2.1), Mlullinearized (Kv3.4) and Not1-linearized (Kv4.2) DNA templates using the T3 (Kv2.1), SP6 (Kv3.4) and T7 (Kv4.2) mMessage mMachine kits (Ambion, Austin, Tex.). cRNA was quantified by spectrophotometry and its size integrity verified by gel electophoresis. Defolliculated stage V and VI Xenopus laevis oocytes (purchased from Nasco, Grand Island, N.Y.) were injected with 5 ng of cRNA encoding Kv2.1, Kv3.4 or Kv4.2. […]\nData analysis: Current-voltage relationships were obtained by measuring peak current during depolarizing pulses. Inhibition constants for DABCO blockers were calculated after generating a dose response curve by fitting with a logistic dose-response function y=A2+[A1−A2/1+(x/x0)^p], where A1 is the maximum response plateau, A2 is the minimum response plateau, x is drug concentrator, x0 is the IC50, and p the Hill slope. […]"}, "[2]": {"molecular_target": "T2, Δ1-28 Kv3.4 channels (Homo sapiens, UniProt Q03721)", "T2 construct": "expressed in transfected cells; host or cells: Xenopus oocytes (cRNA injection)", "T2 sequence (Q03721 29-635)": "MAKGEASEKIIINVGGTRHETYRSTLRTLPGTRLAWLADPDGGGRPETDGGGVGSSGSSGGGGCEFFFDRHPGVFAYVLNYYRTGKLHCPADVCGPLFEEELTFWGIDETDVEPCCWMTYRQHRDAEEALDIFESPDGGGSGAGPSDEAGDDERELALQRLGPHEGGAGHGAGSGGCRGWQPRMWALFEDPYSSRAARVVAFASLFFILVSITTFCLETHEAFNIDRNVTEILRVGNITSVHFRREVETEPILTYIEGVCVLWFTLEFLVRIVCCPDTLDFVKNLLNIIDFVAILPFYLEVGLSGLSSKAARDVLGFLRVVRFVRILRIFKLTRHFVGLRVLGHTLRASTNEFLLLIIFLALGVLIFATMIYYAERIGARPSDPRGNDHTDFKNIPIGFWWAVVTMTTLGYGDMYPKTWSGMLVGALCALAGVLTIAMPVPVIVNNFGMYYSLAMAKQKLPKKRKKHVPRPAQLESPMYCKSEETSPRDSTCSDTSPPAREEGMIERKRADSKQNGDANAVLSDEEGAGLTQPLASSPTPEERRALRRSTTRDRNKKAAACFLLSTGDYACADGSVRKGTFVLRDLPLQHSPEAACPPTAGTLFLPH", "assay": "TEVC current-voltage relationship of Δ1-28 Kv3.4 in Xenopus oocytes", "format": "cell-based", "settings": "1 mM", "method": "FIG. 6. Opening and block of Kv3.4 by two didabco compounds show voltage-dependency. Normalized I/V relationship for Δ1-28 Kv3.4 currents in oocytes in the absence (control) or presence as indicated of 1 mM JC279.3a or JC638.2a. Peak currents during 2 s pulses to voltages between −80 and +60 mV (protocol upper left insert) were recorded, before and after drug was washed in during successive 0.1 Hz, 2 s pulses from −80 to 0 mV until equilibrium block or opening was observed. Points are means from n=3-16 oocytes; error bars indicate SEM.\nWhole-cell two-electrode voltage-clamp (TEVC) recordings were performed on X laevis oocytes expressing cloned Kv2.1, Kv3.4 or Kv4.2 using a Warner OC-725C amplifier and pClamp9 (Axon Instruments, Foster City, Calif.) software. Oocytes were bathed in a small-volume Warner oocyte bath and viewed with a Fisher dissection microscope. Bath solution for whole-cell oocyte recordings was (in mM): 96 NaCl, 4 KCl, 0.7 MgCl2, 1 CaCl2, 10 HEPES (pH 7.4); whole-cell oocyte TEVC pipettes were of 0.2-2 M resistance when filled with 3 M KCl. Experiments were performed 24-48 hours after cRNA injection. For assessment of current-voltage relationships in the absence or presence of dabco derivatives, oocytes were held at −80 mV, stepped for 2 seconds at voltages between −80 mV and +60 mV in 20 mV steps (Kv2.1) or between −80 and +50 mV in 10 mV steps (Kv3.4), then held for 500 ms at −40 mV before returning to the holding potential. For assessment of block during wash-in of dabco derivatives at a single voltage, oocytes were held at −80 mV, and repetitively stepped to 0 mV for 2 s with an interpulse interval of 10 s or 60 s as indicated. A range of concentrations of dabco or dabco derivatives were washed in via the bath solution during repetitive single-voltage pulses (after an initial period of 5 pulses with control solution to ensure current stabilization) until equilibrium block was achieved, to establish dose-responses. Inhibited currents are compared to the current at the end of 5-pulse control period, thus some bar graphs show ‘control’ current values slightly less than 1, and with an error bar, to show how much currents deviate in the absence of drug. Washout was performed after the highest concentration of blocker was washed in. […]\nTo investigate the mechanism of Kv channel block or opening by didabco compounds, the current-voltage relationship (I/V curve) of Δ1-28 Kv3.4 channels expressed in Xenopus oocytes was assessed using TEVC recording in the absence and presence of a didabco opener (JC279.3a, the 10 CH2-group didabco from FIG. 3) or a didabco blocker (JC638.2a, the para didabco from FIG. 4)."}}, "data": [{"smiles": "c1cc(C[N+]23CCN(CC2)CC3)ccc1C[N+]12CCN(CC1)CC2", "note": "[JC638.2α, α,α′-[bis(4-aza-1-azoniabicyclo[2.2.2]octanyl)]p-xylene]", "values": [{"measurement": "IC50", "setting": "[1]", "result": "185 ± 41", "unit": "µM"}, {"measurement": "slope of dose response curve", "setting": "[1]", "result": 1.3}, {"measurement": "block or opening of Δ1-28 Kv3.4", "setting": "[2]", "result": "blocker"}, {"measurement": "voltage dependence of block or opening of Kv3.4", "setting": "[2]; attenuated at more depolarized voltages", "result": "voltage-dependent"}]}]}
